Experimental data: patent US11426397B2, “Piperidinyl- and piperazinyl-substituted heteroaromatic carboxamides as modulators of GPR6” (TAKEDA PHARMACEUTICAL COMPANY LIMITED, priority 2017, dated 2022)

Target: T1, GPR6 receptor expressed in CHO-K1 cells (Homo sapiens, UniProt P46095)
T1 construct: expressed in transfected cells
Experiment: In vitro inhibition of cAMP (EC50), cell-based HTRF cAMP assay
Settings: inhibition of constitutive cAMP activity of GPR6 in CHO-K1 cells
How it was run: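 Cellular cAMP measured by Lance Ultra HTRF (Eu-cAMP tracer, ULight anti-cAMP), with EC50 fitted by four-parameter logistic. Test compounds sat on cells 45 min, 37 °C, in pH 7.4 Ringer's with 300 μM IBMX and 0.5% BSA; GPR6 in CHO-K1 induced beforehand by doxycycline, 2 μg/mL, 20 h.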

T1 sequence (P46095 whole entry): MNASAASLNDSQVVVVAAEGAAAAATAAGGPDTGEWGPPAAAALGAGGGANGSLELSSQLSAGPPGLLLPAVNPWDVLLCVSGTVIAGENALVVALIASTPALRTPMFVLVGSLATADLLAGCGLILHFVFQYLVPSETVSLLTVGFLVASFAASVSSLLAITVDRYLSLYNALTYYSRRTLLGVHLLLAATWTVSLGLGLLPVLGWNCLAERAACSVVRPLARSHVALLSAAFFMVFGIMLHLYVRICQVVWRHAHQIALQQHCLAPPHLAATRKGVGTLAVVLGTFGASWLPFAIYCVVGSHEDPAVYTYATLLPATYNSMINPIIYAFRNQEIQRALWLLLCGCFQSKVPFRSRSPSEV

| SMILES | pEC50, in vitro inhibition of cAMP |
| --- | --- |
| COc1ccc(CN2CCN(c3ccc(C#N)cc3NC(=O)c3cccnc3OC)CC2)nc1 [Example 250, N-(5-cyano-2-(4-((5-methoxypyridin-2-yl)methyl)piperazin-1-yl)phenyl)-2-methoxynicotinamide] | 6.0 |
| N#Cc1ccc(N2CCC(Oc3ccc(F)cc3F)CC2)c(NC(=O)c2cc(C3CC3)on2)c1 [Example 125, N-(5-cyano-2-(4-(2,4-difluorophenoxy)piperidin-1-yl)phenyl)-5-cyclopropylisoxazole-3-carboxamide] | 6.7 |
| COc1ncccc1C(=O)Nc1cc(C#N)c(C#N)cc1N1CCC(Oc2ccc(F)cc2F)CC1 [Example 271] | 7.1 |
| Cn1cc(C(=O)Nc2cc(C#N)ccc2N2CCC(Oc3ccc(F)cc3F)CC2)nn1 [Example 145, N-(5-cyano-2-(4-(2,4-difluorophenoxy)piperidin-1-yl)phenyl)-1-methyl-1H-1,2,3-triazole-4-carboxamide] | 6.6 |
| COc1cc(CN2CCN(c3ncc(C#N)cc3NC(=O)c3cn(C)nc3OC)CC2)ccc1F [Example 158, N-(5-cyano-2-(4-(4-fluoro-3-methoxybenzyl)piperazin-1-yl)pyridin-3-yl)-3-methoxy-1-methyl-1H-pyrazole-4-carboxamide] | 6.3 |
| COc1ncccc1C(=O)Nc1cc(S(C)(=O)=O)ccc1N1CCC(Oc2ccc(F)cc2F)CC1 [Example 5, N-(2-(4-(2,4-difluorophenoxy)piperidin-1-yl)-5-(methylsulfonyl)phenyl)-2-methoxynicotinamide] | 7.4 |
| COCc1cnc(N2CCC(Oc3ccc(F)cc3F)CC2)c(NC(=O)c2cccnc2OC)c1 [Example 65, N-(2-(4-(2,4-difluorophenoxy)piperidin-1-yl)-5-(methoxymethyl)pyridin-3-yl)-2-methoxynicotinamide] | 7.3 |
| N#Cc1ccc(N2CCC(Oc3ccc(F)cc3F)CC2)c(NC(=O)c2cscn2)c1 [Example 112, N-(5-cyano-2-(4-(2,4-difluorophenoxy)piperidin-1-yl)phenyl)thiazole-4-carboxamide] | 6.4 |
| COc1nc(C)cc(C)c1C(=O)Nc1cc(C#N)ccc1N1CCC(Oc2ccc(F)cc2F)CC1 [Example 80, N-(5-cyano-2-(4-(2,4-difluorophenoxy)piperidin-1-yl)phenyl)-2-methoxy-4,6-dimethylnicotinamide] | 6.3 |
| Cc1nonc1C(=O)Nc1cc(C#N)ccc1N1CCC(Oc2ccc(F)cc2F)CC1 [Example 119, N-(5-cyano-2-(4-(2,4-difluorophenoxy)piperidin-1-yl)phenyl)-4-methyl-1,2,5-oxadiazole-3-carboxamide] | <5.7 |
| COc1cccnc1C(=O)Nc1cc(C#N)ccc1N1CCC(Oc2ccc(F)cc2F)CC1 [Example 26, N-(5-cyano-2-(4-(2,4-difluorophenoxy)piperidin-1-yl)phenyl)-3-methoxypicolinamide] | 6.4 |
| COc1nn(C)cc1C(=O)Nc1cc(C#N)cnc1N1CCN(Cc2c(F)cc(F)c(OC)c2F)CC1 [Example 171, N-(5-cyano-2-(4-(2,4,6-trifluoro-3-methoxybenzyl)piperazin-1-yl)pyridin-3-yl)-3-methoxy-1-methyl-1H-pyrazole-4-carboxamide] | 6.6 |
| Cc1nc(C(=O)Nc2cc(C#N)ccc2N2CCC(Oc3ccc(F)cc3F)CC2)cs1 [Example 105] | 7.0 |
| Cn1cccc(C(=O)Nc2ccccc2N2CCC(Oc3ccc(F)cc3F)CC2)c1=O [Example 257, N-(2-(4-(2,4-difluorophenoxy)piperidin-1-yl)phenyl)-1-methyl-2-oxo-1,2-dihydropyridine-3-carboxamide] | 7.0 |
| COc1c(Cl)cccc1C(=O)Nc1cc(C#N)ccc1N1CCC(Oc2ccc(F)cc2F)CC1 [Example 222, 3-chloro-N-(5-cyano-2-(4-(2,4-difluorophenoxy)piperidin-1-yl)phenyl)-2-methoxybenzamide] | 6.7 |
| COc1nn(C)cc1C(=O)Nc1cc(C#N)cnc1N1CCN(Cc2ccc(OC(F)(F)F)cc2)CC1 [Example 166, N-(5-cyano-2-(4-(4-(trifluoromethoxy)benzyl)piperazin-1-yl)pyridin-3-yl)-3-methoxy-1-methyl-1H-pyrazole-4-carboxamide] | 6.1 |
| COc1ncccc1C(=O)Nc1cnc(C(N)=O)cc1N1CCC(Oc2ccc(F)cc2F)CC1 [Example 269, 4-(4-(2,4-difluorophenoxy)piperidin-1-yl)-5-(2-methoxynicotinamido)picolinamide] | 6.9 |

| SMILES | pEC50, in vitro inhibition of cAMP |
| --- | --- |
| COc1ncccc1C(=O)Nc1cc(C#N)ccc1N1CCN(Cc2cccc(F)c2F)CC1 [Example 243, N-(5-cyano-2-(4-(2,3-difluorobenzyl)piperazin-1-yl)phenyl)-2-methoxynicotinamide] | 6.5 |
| Cn1cccc(C(=O)Nc2cc(C#N)ccc2N2CCC(C(=O)c3cc(F)ccc3F)CC2)c1=O [Example 82, N-(5-cyano-2-(4-(2,5-difluorobenzoyl)piperidin-1-yl)phenyl)-1-methyl-2-oxo-1,2-dihydropyridine-3-carboxamide] | 7.0 |
| N#Cc1ccc(N2CCC(Oc3ccc(F)cc3F)CC2)c(NC(=O)c2cnc3ccccn3c2=O)c1 [Example 178, N-(5-cyano-2-(4-(2,4-difluorophenoxy)piperidin-1-yl)phenyl)-4-oxo-4H-pyrido[1,2-a]pyrimidine-3-carboxamide] | 6.8 |
| COCc1cnc(N2CCN(Cc3ccc(F)cc3F)CC2)c(NC(=O)c2cccnc2OC)c1 [Example 33, N-(2-(4-(2,4-difluorobenzyl)piperazin-1-yl)-5-(methoxymethyl)pyridin-3-yl)-2-methoxynicotinamide] | 7.2 |
| Cn1c(-c2ccccc2)ncc(C(=O)Nc2cc(C#N)ccc2N2CCC(Oc3ccc(F)cc3F)CC2)c1=O [Example 183, N-(5-cyano-2-(4-(2,4-difluorophenoxy)piperidin-1-yl)phenyl)-1-methyl-6-oxo-2-phenyl-1,6-dihydropyrimidine-5-carboxamide] | 5.9 |
| COc1c(C)ccc(C)c1C(=O)Nc1cc(C#N)ccc1N1CCC(Oc2ccc(F)cc2F)CC1 [Example 214, N-(5-cyano-2-(4-(2,4-difluorophenoxy)piperidin-1-yl)phenyl)-2-methoxy-3,6-dimethylbenzamide] | 5.5 |
| Cc1nnc(C(=O)Nc2cc(C#N)ccc2N2CCC(Oc3ccc(F)cc3F)CC2)o1 [Example 132, N-(5-cyano-2-(4-(2,4-difluorophenoxy)piperidin-1-yl)phenyl)-5-methyl-1,3,4-oxadiazole-2-carboxamide] | 5.6 |
| COc1ccc(CC2CCN(c3ccc(C#N)cc3NC(=O)c3cccn(C)c3=O)CC2)c(F)c1 [Example 90, N-(5-cyano-2-(4-(2-fluoro-4-methoxybenzyl)piperidin-1-yl)phenyl)-1-methyl-2-oxo-1,2-dihydropyridine-3-carboxamide] | 7.2 |
| COc1nn(C)cc1C(=O)Nc1cc(C#N)cnc1N1CCC(Oc2ccc(F)cc2F)CC1 [Example 60, N-(5-cyano-2-(4-(2,4-difluorophenoxy)piperidin-1-yl)pyridin-3-yl)-3-methoxy-1-methyl-1H-pyrazole-4-carboxamide] | 7.3 |
| COc1c(C(=O)Nc2cc(C#N)ccc2N2CCC(Oc3ccc(F)cc3F)CC2)ccc(F)c1F [Example 233, N-(5-cyano-2-(4-(2,4-difluorophenoxy)piperidin-1-yl)phenyl)-3,4-difluoro-2-methoxybenzamide] | 6.4 |
| Cn1cccc(C(=O)Nc2cc(C#N)ccc2N2CCC(C(F)(F)c3ccc(F)cc3F)CC2)c1=O [Example 86, N-(5-cyano-2-(4-((2,4-difluorophenyl)difluoromethyl)piperidin-1-yl)phenyl)-1-methyl-2-oxo-1,2-dihydropyridine-3-carboxamide] | 6.8 |
| CCn1nc(C(=O)Nc2cc(C#N)ccc2N2CCC(Oc3ccc(F)cc3F)CC2)cc1C [Example 143, N-(5-cyano-2-(4-(2,4-difluorophenoxy)piperidin-1-yl)phenyl)-1-ethyl-5-methyl-1H-pyrazole-3-carboxamide] | 6.8 |
| Cc1cc(C(=O)Nc2cc(C#N)ccc2N2CCC(Oc3ccc(F)cc3F)CC2)c(=O)n(C)c1C [Example 184, N-(5-cyano-2-(4-(2,4-difluorophenoxy)piperidin-1-yl)phenyl)-1,5,6-trimethyl-2-oxo-1,2-dihydropyridine-3-carboxamide] | 6.8 |
| COc1ncccc1C(=O)Nc1cnc(C(F)(F)F)cc1N1CCC(Oc2ccc(F)cc2F)CC1 [Example 289] | 6.9 |
| COc1ccc(CN2CCN(c3ncc(C#N)cc3NC(=O)c3cn(C)nc3OC)CC2)cc1F [Example 168, N-(5-cyano-2-(4-(3-fluoro-4-methoxybenzyl)piperazin-1-yl)pyridin-3-yl)-3-methoxy-1-methyl-1H-pyrazole-4-carboxamide] | 6.4 |
| COc1ncc(NC(=O)c2ccc(C)nc2OC)c(N2CCC(Oc3ccc(F)cc3F)CC2)n1 [Example 23, N-(4-(4-(2,4-difluorophenoxy)piperidin-1-yl)-2-methoxypyrimidin-5-yl)-2-methoxy-6-methylnicotinamide] | 6.3 |
